Experiment [1] deals with isolated recombinant JAK1 kinase domain (Homo sapiens (Human), UniProt P23458). As to the kind of experiment: JAK1 enzyme assay (Caliper LabChip, peptide phosphorylation). The format is biochemical. Conditions: isolated recombinant JAK1 kinase domain, 25 μM ATP.
Experiment [2] concerns the target isolated recombinant JAK2 kinase domain (Homo sapiens (Human), UniProt O60674). As to the kind of experiment: JAK2 enzyme assay (Caliper LabChip, peptide phosphorylation). In kind it is biochemical. Conditions: 25 μM ATP.

Molecules are shown by their SMILES.

Usually Ki stands for the dissociation constant of the complex between target and ligand, obtained from inhibition or displacement.

Sequence of isolated recombinant JAK1 kinase domain (P23458 875-1153): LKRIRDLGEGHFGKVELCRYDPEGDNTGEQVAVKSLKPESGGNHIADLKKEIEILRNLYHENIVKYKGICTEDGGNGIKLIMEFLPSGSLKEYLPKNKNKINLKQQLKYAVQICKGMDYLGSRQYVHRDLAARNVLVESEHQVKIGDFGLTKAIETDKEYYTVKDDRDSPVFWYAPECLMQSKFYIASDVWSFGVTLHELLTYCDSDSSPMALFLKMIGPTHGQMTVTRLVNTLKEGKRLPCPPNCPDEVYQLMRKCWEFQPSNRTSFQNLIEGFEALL
Sequence of isolated recombinant JAK2 kinase domain (O60674 849-1124): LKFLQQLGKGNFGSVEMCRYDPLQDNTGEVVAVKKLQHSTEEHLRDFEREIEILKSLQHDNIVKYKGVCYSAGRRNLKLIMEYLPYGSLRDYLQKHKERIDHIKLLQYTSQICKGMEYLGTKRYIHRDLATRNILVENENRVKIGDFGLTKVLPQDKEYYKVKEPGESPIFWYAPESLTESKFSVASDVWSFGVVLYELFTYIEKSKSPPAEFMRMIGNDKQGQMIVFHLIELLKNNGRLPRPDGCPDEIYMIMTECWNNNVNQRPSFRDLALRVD

Regarding `O=C(Nc1sc(N2CCN(CCc3ccccc3)CC2)nc1-c1cc(Cl)ccc1OC(F)F)c1cnn2cccnc12` [Example 206, N-[4-[5-chloro-2-(difluoromethoxy)phenyl]-2-[4-(2-phenylethyl)piperazin-1-yl]thiazol-5-yl]pyrazolo[1,5-a]pyrimidine-3-carboxamide], the Ki came out at 14 nM in experiment [1] and 8.67 nM in experiment [2].

Turning to `CN1CCC2(CC1)CN(C(=O)Cn1cc(NC(=O)c3cnn4cccnc34)c(-c3cc(Cl)ccc3OC(F)F)n1)CCO2` [Example 213, N-[3-[5-chloro-2-(difluoromethoxy)phenyl]-1-[2-(9-methyl-1-oxa-4,9-diazaspiro[5.5]undecan-4-yl)-2-oxo-ethyl]pyrazol-4-yl]pyrazolo[1,5-a]pyrimidine-3-carboxamide], the Ki was determined as 1.49 nM in experiment [1] and 2.34 nM in experiment [2].

Consider `CN1CC2(C1)CN(C(=O)Cn1cc(NC(=O)c3cnn4cccnc34)c(-c3cc(Cl)ccc3OC(F)F)n1)C2` [Example 214, N-[3-[5-chloro-2-(difluoromethoxy)phenyl]-1-[2-(6-methyl-2,6-diazaspiro[3.3]heptan-2-yl)-2-oxo-ethyl]pyrazol-4-yl]pyrazolo[1,5-a]pyrimidine-3-carboxamide], for which the Ki in experiment [1] is 1.17 nM; in experiment [2], 1.29 nM.

Consider `O=C(Nc1cn(CC(=O)N2CC3(CCNCC3)C2)nc1-c1cc(Cl)ccc1OC(F)F)c1cnn2cccnc12` [Example 217, N-[3-[5-chloro-2-(difluoromethoxy)phenyl]-1-[2-(2,7-diazaspiro[3.5]nonan-2-yl)-2-oxo-ethyl]pyrazol-4-yl]pyrazolo[1,5-a]pyrimidine-3-carboxamide], for which the Ki in experiment [1] was 1.07 nM; in experiment [2] it was 1.37 nM.

With `O=C(Nc1cn(CC(=O)N2CCN(CCCO)CC2)nc1-c1cc(Cl)ccc1OC(F)F)c1cnn2cccnc12` [Example 230, N-[3-[5-chloro-2-(difluoromethoxy)phenyl]-1-[2-[4-(3-hydroxypropyl)piperazin-1-yl]-2-oxo-ethyl]pyrazol-4-yl]pyrazolo[1,5-a]pyrimidine-3-carboxamide], the Ki in experiment [1] was 0.61 nM; in experiment [2] it was 0.71 nM.

With `O=C(Nc1cn(CC(=O)N2CCN(CCOCCO)CC2)nc1-c1cc(Cl)ccc1OC(F)F)c1cnn2cccnc12` [Example 231, N-[3-[5-chloro-2-(difluoromethoxy)phenyl]-1-[2-[4-[2-(2-hydroxyethoxy)ethyl]piperazin-1-yl]-2-oxo-ethyl]pyrazol-4-yl]pyrazolo[1,5-a]pyrimidine-3-carboxamide], the Ki in experiment [1] is 0.54 nM; in experiment [2] it was 1.18 nM.

For the molecule `CS(=O)(=O)CCN1CCN(C(=O)Cn2cc(NC(=O)c3cnn4cccnc34)c(-c3cc(Cl)ccc3OC(F)F)n2)CC1` [Example 232, N-[3-[5-chloro-2-(difluoromethoxy)phenyl]-1-[2-[4-(2-methylsulfonylethyl)piperazin-1-yl]-2-oxo-ethyl]pyrazol-4-yl]pyrazolo[1,5-a]pyrimidine-3-carboxamide], the Ki in experiment [1] was found to be 0.74 nM; in experiment [2], 1.46 nM.

For `CN1CCN(C(=O)Cn2cc(NC(=O)c3cnn4cccnc34)c(-c3cc(Cl)ccc3OC(F)F)n2)C[C@@H]1CO` [Example 234, N-[3-[5-chloro-2-(difluoromethoxy)phenyl]-1-[2-[(3R)-3-(hydroxymethyl)-4-methyl-piperazin-1-yl]-2-oxo-ethyl]pyrazol-4-yl]pyrazolo[1,5-a]pyrimidine-3-carboxamide], the results for the Ki in experiment [1] and in experiment [2] were 0.58 nM and 1.22 nM, respectively.

`O=C(Nc1cn(CC(=O)N2CCN(c3ccccc3)CC2)nc1-c1cc(Cl)ccc1OC(F)F)c1cnn2cccnc12` [Example 236, N-[3-[5-chloro-2-(difluoromethoxy)phenyl]-1-[2-oxo-2-(4-phenylpiperazin-1-yl)ethyl]pyrazol-4-yl]pyrazolo[1,5-a]pyrimidine-3-carboxamide]: the Ki turned out to be 0.41 nM in experiment [1] and 0.74 nM in experiment [2].

For the molecule `N#Cc1ccc(N2CCN(C(=O)Cn3cc(NC(=O)c4cnn5cccnc45)c(-c4cc(Cl)ccc4OC(F)F)n3)CC2)cc1` [Example 237, N-[3-[5-chloro-2-(difluoromethoxy)phenyl]-1-[2-[4-(4-cyanophenyl)piperazin-1-yl]-2-oxo-ethyl]pyrazol-4-yl]pyrazolo[1,5-a]pyrimidine-3-carboxamide], the values for the Ki in experiment [1] and in experiment [2] were 0.32 nM and 0.76 nM, respectively.

Consider `O=C(Nc1cn(CC(=O)N2CCCN(CCO)CC2)nc1-c1cc(Cl)ccc1OC(F)F)c1cnn2cccnc12` [Example 240, N-[3-[5-chloro-2-(difluoromethoxy)phenyl]-1-[2-[4-(2-hydroxyethyl)-1,4-diazepan-1-yl]-2-oxo-ethyl]pyrazol-4-yl]pyrazolo[1,5-a]pyrimidine-3-carboxamide], for which the Ki in experiment [1] worked out at 1 nM; in experiment [2] it was 1.68 nM.

Turning to `O=C(Nc1cn(CC(=O)N2CCN3CCCCC3C2)nc1-c1cc(Cl)ccc1OC(F)F)c1cnn2cccnc12` (stereo not shown) [Example 241, N-[1-[2-(1,3,4,6,7,8,9,9a-octahydropyrido[1,2-a]pyrazin-2-yl)-2-oxo-ethyl]-3-[5-chloro-2-(difluoromethoxy)phenyl]pyrazol-4-yl]pyrazolo[1,5-a]pyrimidine-3-carboxamide], the Ki in experiment [1] is 0.87 nM; in experiment [2], 1.25 nM.

On to `CN1[C@@H]2CC[C@H]1CN(C(=O)Cn1cc(NC(=O)c3cnn4cccnc34)c(-c3cc(Cl)ccc3OC(F)F)n1)C2` [Example 242, N-[3-[5-chloro-2-(difluoromethoxy)phenyl]-l-[2-[(1S,5R)-8-methyl-3,8-diazabicyclo[3.2.1]octan-3-yl]-2-oxo-ethyl]pyrazol-4-yl]pyrazolo[1,5-a]pyrimidine-3-carboxamide], for which the Ki in experiment [1] is 0.95 nM; in experiment [2], 1.03 nM.

For the molecule `CN1CCN(C(=O)Cn2cc(NC(=O)c3c(N)nn4cccnc34)c(-c3cc(Cl)ccc3OC(F)F)n2)CC1` [Example 243, 2-amino-N-[3-[5-chloro-2-(difluoromethoxy)phenyl]-1-[2-(4-methylpiperazin-1-yl)-2-oxo-ethyl]pyrazol-4-yl]pyrazolo[1,5-a]pyrimidine-3-carboxamide], the Ki in experiment [1] was 0.49 nM; in experiment [2], 0.36 nM.

Turning to `Nc1nn2cccnc2c1C(=O)Nc1cn(CC(=O)N2CCN(CCO)CC2)nc1-c1cc(Cl)ccc1OC(F)F` [Example 244, 2-amino-N-[3-[5-chloro-2-(difluoromethoxy)phenyl]-1-[2-[4-(2-hydroxyethyl)piperazin-1-yl]-2-oxo-ethyl]pyrazol-4-yl]pyrazolo[1,5-a]pyrimidine-3-carboxamide], the Ki in experiment [1] was determined as 0.49 nM; in experiment [2], 0.24 nM.

As to `COCCN1CCN(C(=O)Cn2cc(NC(=O)c3c(N)nn4cccnc34)c(-c3cc(Cl)ccc3OC(F)F)n2)CC1` [Example 245, 2-amino-N-[3-[5-chloro-2-(difluoromethoxy)phenyl]-1-[2-[4-(2-methoxyethyl)piperazin-1-yl]-2-oxo-ethyl]pyrazol-4-yl]pyrazolo[1,5-a]pyrimidine-3-carboxamide], the inhibitory constant (Ki) in experiment [1] worked out at 0.35 nM; in experiment [2], 0.22 nM.

For `CCN1CCN(C(=O)Cn2cc(NC(=O)c3c(N)nn4cccnc34)c(-c3cc(Cl)ccc3OC(F)F)n2)CC1` [Example 247, 2-amino-N-[3-[5-chloro-2-(difluoromethoxy)phenyl]-1-[2-(4-ethylpiperazin-1-yl)-2-oxo-ethyl]pyrazol-4-yl]pyrazolo[1,5-a]pyrimidine-3-carboxamide], the values for the Ki in experiment [1] and in experiment [2] were 0.55 nM and 0.3 nM, respectively.

For the molecule `Nc1nn2cccnc2c1C(=O)Nc1cn(CC(=O)N2CCN(CC3CC3)CC2)nc1-c1cc(Cl)ccc1OC(F)F` [Example 248, 2-amino-N-[3-[5-chloro-2-(difluoromethoxy)phenyl]-1-[2-[4-(cyclopropyl-methyl)piperazin-1-yl]-2-oxo-ethyl]pyrazol-4-yl]pyrazolo[1,5-a]pyrimidine-3-carboxamide], the Ki in experiment [1] stood at 0.62 nM; in experiment [2], 0.39 nM.

Regarding `CN(CCc1ccccc1)Cc1nc(-c2cc(Cl)ccc2OC(F)F)c(NC(=O)c2cnn3cccnc23)s1` [Example 261, N-[4-[5-chloro-2-(difluoromethoxy)phenyl]-2-[[methyl(2-phenylethyl)amino]methyl]thiazol-5-yl]pyrazolo[1,5-a]pyrimidine-3-carboxamide], the Ki in experiment [1] was 17.9 nM; in experiment [2], 10.2 nM.

For the molecule `CC1(O)CCN(C(=O)Cn2cc(NC(=O)c3cnn4cccnc34)c(-c3cc(Cl)ccc3OC(F)F)n2)C1` (stereo not shown) [Example 269, N-[3-[5-chloro-2-(difluoromethoxy)phenyl]-1-[2-(3-hydroxy-3-methyl-pyrrolidin-1-yl)-2-oxo-ethyl]pyrazol-4-yl]pyrazolo[1,5-a]pyrimidine-3-carboxamide], the values for the Ki in experiment [1] and in experiment [2] were 0.33 nM and 0.83 nM, respectively.

On to `O=C(Nc1cn(CC(=O)N2CCC(O)(CO)CC2)nc1-c1cc(Cl)ccc1OC(F)F)c1cnn2cccnc12` [Example 272, N-[3-[5-chloro-2-(difluoromethoxy)phenyl]-1-[2-[4-hydroxy-4-(hydroxymethyl)-1-piperidyl]-2-oxo-ethyl]pyrazol-4-yl]pyrazolo[1,5-a]pyrimidine-3-carboxamide], for which the Ki stood at 0.33 nM in experiment [1] and 0.78 nM in experiment [2].

On to `Nc1nn2cccnc2c1C(=O)Nc1cn(CC(=O)N2CCOC(CO)C2)nc1-c1cc(Cl)ccc1OC(F)F` (stereo not shown) [Example 273, 2-amino-N-[3-[5-chloro-2-(difluoromethoxy)phenyl]-1-[2-[2-(hydroxy-methyl)morpholin-4-yl]-2-oxo-ethyl]pyrazol-4-yl]pyrazolo[1,5-a]pyrimidine-3-carboxamide], for which the Ki in experiment [1] came out at 0.49 nM; in experiment [2] it was 0.23 nM.

As to `O=C(Nc1cn(CC(=O)N2CCC(OCCO)CC2)nc1-c1cc(Cl)ccc1OC(F)F)c1cnn2cccnc12` [Example 275, N-[3-[5-chloro-2-(difluoromethoxy)phenyl]-1-[2-[4-(2-hydroxyethoxy)-1-piperidyl]-2-oxo-ethyl]pyrazol-4-yl]pyrazolo[1,5-a]pyrimidine-3-carboxamide], the results for the inhibitory constant (Ki) in experiment [1] and in experiment [2] were 0.31 nM and 0.89 nM, respectively.
